Here are results for 32 compounds from PMC5428354, “Screening of a natural compound library identifies emodin, a natural compound from Rheum palmatum Linn that inhibits DPP4” (PeerJ, 2017).

The target in this assay is DPP4 (Homo sapiens, UniProt P27487). Briefly: DPP4 activity assay (DPP4 inhibitor screening assay kit, Cayman).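 As to all read-outs here: fluorescence read at excitation 360 nm and emission 460 nm after the enzyme reaction ran 30 min at 37 °C in a 96-well plate.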 The assay is classed as biochemical. Details: purchased Cayman Chemical, Ann Arbor, MI, USA. Conditions: 10 µM, control mean 100.0; for remaining activity at 10 µM: 0.5 h.
The mark [1] stands for this setting: Figure 1A raw data, read-out: DPP4 activity in library screen, Exp 1.
Setting [2] is: Figure 1A raw data, read-out: DPP4 activity in library screen, Exp 2.
Where [3] appears, read: Figure 1A raw data, read-out: DPP4 activity in library screen, Exp 3.
[4] abbreviates: mean of Exp 1-3, read-out: DPP4 activity in library screen, Mean.

Like-named read-outs stand apart in the source and are kept apart here.

Chain of DPP4 (P27487 whole entry): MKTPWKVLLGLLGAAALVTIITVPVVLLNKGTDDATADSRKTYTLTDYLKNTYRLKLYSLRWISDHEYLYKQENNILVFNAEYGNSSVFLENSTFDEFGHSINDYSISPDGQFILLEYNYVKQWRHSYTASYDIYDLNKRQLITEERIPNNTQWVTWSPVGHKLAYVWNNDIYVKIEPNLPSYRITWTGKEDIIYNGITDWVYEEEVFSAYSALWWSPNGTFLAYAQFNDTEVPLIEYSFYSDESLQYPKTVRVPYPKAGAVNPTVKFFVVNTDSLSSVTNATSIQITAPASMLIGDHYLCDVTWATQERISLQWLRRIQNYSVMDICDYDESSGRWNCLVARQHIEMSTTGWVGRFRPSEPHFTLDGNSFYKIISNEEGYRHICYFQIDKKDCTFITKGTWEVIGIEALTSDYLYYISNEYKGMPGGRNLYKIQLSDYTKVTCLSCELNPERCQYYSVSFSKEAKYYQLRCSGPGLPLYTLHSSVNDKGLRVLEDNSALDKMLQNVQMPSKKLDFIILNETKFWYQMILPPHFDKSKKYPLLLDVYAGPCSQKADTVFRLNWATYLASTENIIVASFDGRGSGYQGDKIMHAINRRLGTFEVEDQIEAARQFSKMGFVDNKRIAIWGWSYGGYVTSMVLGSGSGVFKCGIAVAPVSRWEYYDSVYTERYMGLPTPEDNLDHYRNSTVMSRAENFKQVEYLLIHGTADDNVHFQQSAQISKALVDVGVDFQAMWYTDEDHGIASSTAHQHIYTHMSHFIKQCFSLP

As for `C=C[C@](C)(O)CC[C@@H]1[C@@]2(C)CCCC(C)(C)[C@@H]2CC[C@@]1(C)O` [Sclareol], the remaining activity at 10 µM by setting is: under setting [1], 80.9%; under setting [2], 99.9%; under setting [3], 71.4%; under setting [4], 84.1%.
Take `CC1(C)[C@@H](O[C@H]2O[C@H](C(=O)O)[C@@H](O)[C@H](O)[C@H]2O[C@@H]2O[C@H](C(=O)O)[C@@H](O)[C@H](O)[C@H]2O)CC[C@]2(C)[C@H]3C(=O)C=C4[C@@H]5C[C@@](C)(C(=O)O)CC[C@]5(C)CC[C@@]4(C)[C@]3(C)CC[C@@H]12` [Ammonium Glycyrrhizinate]: for the setting “Figure 1A raw data”, the “DPP4 activity in library screen, Exp 1” value turned out to be 83.3; the “DPP4 activity in library screen, Exp 2” value is listed as 106.3; the “DPP4 activity in library screen, Exp 3” value was 81.6. The “DPP4 activity in library screen, Mean” value (mean of Exp 1-3) came to 90.4.
As for `CC1(C)O[C@H]2CC(=O)OC[C@]23[C@H]2CC[C@@]4(C)[C@H](c5ccoc5)OC(=O)[C@H]5O[C@]54[C@]2(C)C(=O)C[C@@H]13` [Limonin], the remaining activity at 10 µM came out at 104% under setting [1], 106% under setting [2], 91.4% under setting [3] and 101% under setting [4].
For the compound `COc1cc2c(cc1OC)[C@@H]1Cc3ccc(OC)c(OC)c3CN1CC2` [Rotundine], the remaining activity at 10 µM by setting is: under setting [1], 103%; under setting [2], 99.8%; under setting [3], 104%; under setting [4], 102%.
For `O=c1cc(-c2ccc(O)cc2)oc2cc(O)cc(O)c12` [Apigenin], in that order: 97.4%, 70.3%, 67.8% and 78.5%.
Take `OCc1c[nH]c2ccccc12` [Indole-3-carbinol]: the remaining activity at 10 µM worked out at 103% under setting [1], 92% under setting [2], 88.7% under setting [3] and 94.6% under setting [4].
For `C[C@@H]1O[C@@H](OC[C@H]2O[C@@H](Oc3c(-c4ccc(OCCO)c(OCCO)c4)oc4cc(OCCO)cc(O)c4c3=O)[C@H](O)[C@@H](O)[C@@H]2O)[C@H](O)[C@H](O)[C@H]1O` [Troxerutin], in that order: 69.8%, 62.2%, 57.2% and 63.1%.
Regarding `C[C@H](CCC(=O)O)[C@H]1CC[C@H]2[C@@H]3C[C@H](O)[C@@H]4C[C@H](O)CC[C@]4(C)[C@H]3CC[C@]12C` [Hyodeoxycholic acid (HDCA), Hyodeoxycholic acid], the remaining activity at 10 µM amounted to 96.6% under setting [1], 94.7% under setting [2], 96.2% under setting [3] and 95.8% under setting [4].
The like results for `C/C=C1/[C@H](O[C@@H]2O[C@H](CO)[C@@H](O)[C@H](O)[C@H]2O)OC=C(C(=O)OC)[C@H]1CC(=O)OCCc1ccc(O)c(O)c1` [Oleuropein] were, in that order, 117%, 101%, 93.4% and 104%.
In the case of `O=C(O)[C@H]1O[C@@H](Oc2cc3oc(-c4ccccc4)cc(=O)c3c(O)c2O)[C@H](O)[C@@H](O)[C@@H]1O` [Baicalin], the remaining activity at 10 µM runs as follows: under setting [1], 71.4%; under setting [2], 51.3%; under setting [3], 111%; under setting [4], 77.9%.
The like results for `O=C(O)C1=C[C@@H](O)[C@@H](O)[C@H](O)C1` [Shikimic Acid] were, in that order, 87.3%, 80.7%, 84.9% and 84.3%.
Consider `COc1ccc([C@@H]2CC(=O)c3c(O)cc(O)cc3O2)cc1O` [Hesperetin], for which the remaining activity at 10 µM is, setting by setting: under setting [1], 80.8%; under setting [2], 106%; under setting [3], 78.5%; under setting [4], 88.4%.
The like results for `N#C[C@H](O[C@@H]1O[C@H](CO[C@@H]2O[C@H](CO)[C@@H](O)[C@H](O)[C@H]2O)[C@@H](O)[C@H](O)[C@H]1O)c1ccccc1` [Amygdalin] were, in that order, 96.2%, 94.7%, 92.1% and 94.3%.
In the case of `O=C(/C=C/c1ccc(O)cc1)c1ccc(O)cc1O` [Isoliquiritigenin], the remaining activity at 10 µM under setting [3] amounted to 31.6%.
In the case of `COc1cc(C(C)=O)ccc1O` [Apocynin], the remaining activity at 10 µM is 82.6% under setting [1], 90.9% under setting [2], 116% under setting [3] and 96.6% under setting [4].
For `CNCC(O)c1ccc(O)cc1` (centres unmarked) [Synephrine], in that order: 98.7%, 76.9%, 87.7% and 87.8%.
Consider `O=c1cc(-c2ccccc2)oc2cc(O)cc(O)c12` [Chrysin], for which the remaining activity at 10 µM is, setting by setting: under setting [1], 85.4%; under setting [2], 87.6%; under setting [3], 71.2%; under setting [4], 81.4%.
As to `COC12c3c(C)cc(O)c4c(=O)occ(c34)C(=O)C1C13COC(=O)c4c(O)cc(C)c(c41)C(=O)C2C3OC(C)=O` (centres unmarked) [duclauxin], where the note is “Figure 1A raw data”, the “DPP4 activity in library screen, Exp 1” value is listed as 98.3; the “DPP4 activity in library screen, Exp 2” value is 99.5; the “DPP4 activity in library screen, Exp 3” value stood at 163.1. For the same compound, for the setting “mean of Exp 1-3”, the “DPP4 activity in library screen, Mean” value was determined as 120.3.
As to `C[C@H]1[C@H](C)CC[C@]2(C(=O)O)CC[C@]3(C)C(=CC[C@@H]4[C@@]5(C)C[C@@H](O)[C@H](O)[C@@](C)(CO)[C@@H]5CC[C@]43C)[C@H]12` [Asiatic Acid], the remaining activity at 10 µM came out at 83.3% under setting [1], 65.3% under setting [2], 130% under setting [3] and 93% under setting [4].
For `c1coc(CNc2ncnc3[nH]cnc23)c1` [Kinetin], in that order: 97.6%, 93.8%, 93% and 94.8%.
Turning to `Cc1c(C(=O)NCCO)[n+]([O-])c2ccccc2[n+]1[O-]` [Olaquindox], the remaining activity at 10 µM by setting is: under setting [1], 77.8%; under setting [2], 99.1%; under setting [3], 116%; under setting [4], 97.8%.
Turning to `O=C1Nc2ccccc2/C1=C1/Nc2ccccc2C1=O` [Indirubin], the remaining activity at 10 µM under setting [1] is 53.9%, the remaining activity at 10 µM under setting [2] amounted to 58.9%, the remaining activity at 10 µM under setting [3] was 61.7% and the remaining activity at 10 µM under setting [4] was 58.2%.
In the case of `CC1=C(CC/C(C)=C/CCC2=CC[C@H](C3=CC(=O)O[C@H]3O)O[C@H]2O)C(C)(C)CCC1` [Manoalide], the remaining activity at 10 µM came to 102% under setting [1], 112% under setting [2], 125% under setting [3] and 113% under setting [4].
The like results for `CN(C)Cc1c[nH]c2ccccc12` [Gramine] were, in that order, 97.6%, 97.4%, 88.2% and 94.4%.
For `COc1ccc(-c2cc(=O)c3c(O)cc(O[C@@H]4O[C@H](CO[C@@H]5O[C@@H](C)[C@H](O)[C@@H](O)[C@H]5O)[C@@H](O)[C@H](O)[C@H]4O)cc3o2)cc1O` [Diosmin], in that order: 66.8%, 69%, 74.6% and 70.1%.
The like results for `O=c1c(O)c(-c2ccc(O)c(O)c2)oc2cc(O)ccc12` [Fisetin] were, in that order, 72.3%, 74%, 51.8% and 66%.
Take `O=C(O[C@@H]1Cc2c(O)cc(O)cc2O[C@@H]1c1cc(O)c(O)c(O)c1)c1cc(O)c(O)c(O)c1` [(-)-Epigallocatechin Gallate]: the remaining activity at 10 µM by setting is: under setting [1], 100%; under setting [2], 90.2%; under setting [3], 81.9%; under setting [4], 90.8%.
On to `OCc1ccccc1O[C@@H]1O[C@H](CO)[C@@H](O)[C@H](O)[C@H]1O` [Salicin], for which the remaining activity at 10 µM runs as follows: under setting [1], 72%; under setting [2], 94.5%; under setting [3], 87.9%; under setting [4], 84.8%.
With `COc1ccc(-c2coc3cc(O)ccc3c2=O)cc1` [Formononetin], the remaining activity at 10 µM reads like this: under setting [1], 102%; under setting [2], 85.5%; under setting [3], 108%; under setting [4], 98.7%.
Take `C=C1CC[C@@H]2[C@](C)(CO)[C@H](O)CC[C@@]2(C)[C@@H]1C/C=C1/C(=O)OC[C@H]1O` [Andrographolide]: the remaining activity at 10 µM stood at 103% under setting [1], 100% under setting [2], 96.8% under setting [3] and 100% under setting [4].
Regarding `C[C@H](NCc1ccc(OCc2cccc(F)c2)cc1)C(N)=O` [Safinamide], the remaining activity at 10 µM reads like this: under setting [1], 93.4%; under setting [2], 98.3%; under setting [3], 118%; under setting [4], 103%.
With `CC[C@H](CC[C@@H](C)[C@H]1CC[C@H]2[C@@H]3CC=C4C[C@@H](O)CC[C@]4(C)[C@H]3CC[C@]12C)C(C)C` [beta-sitosterol], the remaining activity at 10 µM under setting [1] came out at 98.6%, the remaining activity at 10 µM under setting [2] came to 92.3%, the remaining activity at 10 µM under setting [3] turned out to be 104% and the remaining activity at 10 µM under setting [4] was 98.2%.
